Experimental data taken from PubChem BioAssay AID2060627 (Molecular Pharmacology Branch, DTP, NCI, 2025).
pIC50: −log10 of the molar value. Where “and” joins values, the source holds several entries; their conditions need not be identical. Equal values may be shown once.

Tested on: 156681-154-R-J1-PDC complex spheroid viability
Assay: Anticancer human tumor 156681-154-R-J1-PDC patient-derived melanoma cell line growth inhibition [CLK]
Details: for viability, T/C: stronger effect = lower value; active means viability on the fitted dose curve at most 10% of control; inactive means the rest
Method in brief: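 Patient-derived tumor cells grown as complex spheroids with HUVEC endothelial cells and mesenchymal stem cells, treated with drug combinations. Concentrations descend in half-log steps from near clinical Cmax, or from 10 microM if Cmax unknown.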

[1] = curve of first compound, second compound 0.0316 µM
[2] = curve of first compound, second compound 0.1 µM
[3] = curve of first compound, second compound 0.316 µM
[4] = curve of first compound, second compound 1 µM
[5] = curve of first compound, second compound 3.16 µM
[6] = curve of first compound, second compound 10 µM
[7] = second compound 0.0316 µM, first compound 0.000949 µM
[8] = second compound 0.0316 µM, first compound 0.003 µM
[9] = second compound 0.0316 µM, first compound 0.00949 µM
[10] = second compound 0.0316 µM, first compound 0.03 µM
[11] = second compound 0.0316 µM, first compound 0.0949 µM
[12] = second compound 0.0316 µM, first compound 0.3 µM
[13] = second compound 0.1 µM, first compound 0.000949 µM
[14] = second compound 0.1 µM, first compound 0.003 µM
[15] = second compound 0.1 µM, first compound 0.00949 µM
[16] = second compound 0.1 µM, first compound 0.03 µM
[17] = second compound 0.1 µM, first compound 0.0949 µM
[18] = second compound 0.1 µM, first compound 0.3 µM
[19] = second compound 0.316 µM, first compound 0.000949 µM
[20] = second compound 0.316 µM, first compound 0.003 µM
[21] = second compound 0.316 µM, first compound 0.00949 µM
[22] = second compound 0.316 µM, first compound 0.03 µM
[23] = second compound 0.316 µM, first compound 0.0949 µM
[24] = second compound 0.316 µM, first compound 0.3 µM
[25] = second compound 1 µM, first compound 0.000949 µM
[26] = second compound 1 µM, first compound 0.003 µM
[27] = second compound 1 µM, first compound 0.00949 µM
[28] = second compound 1 µM, first compound 0.03 µM
[29] = second compound 1 µM, first compound 0.0949 µM
[30] = second compound 1 µM, first compound 0.3 µM
[31] = second compound 3.16 µM, first compound 0.000949 µM
[32] = second compound 3.16 µM, first compound 0.003 µM
[33] = second compound 3.16 µM, first compound 0.00949 µM
[34] = second compound 3.16 µM, first compound 0.03 µM
[35] = second compound 3.16 µM, first compound 0.0949 µM
[36] = second compound 3.16 µM, first compound 0.3 µM
[37] = second compound 10 µM, first compound 0.000949 µM
[38] = second compound 10 µM, first compound 0.003 µM
[39] = second compound 10 µM, first compound 0.00949 µM
[40] = second compound 10 µM, first compound 0.03 µM
[41] = second compound 10 µM, first compound 0.0949 µM
[42] = second compound 10 µM, first compound 0.3 µM
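Further: spheroids exposed to the agents for seven days.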
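Wherever viability, T/C is given: 100% = DMSO vehicle control viability.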

CC(Nc1ccc2c(c1)OCCn1cc(N3C(=O)OCC3C(F)F)nc1-2)C(N)=O (stereo not drawn) + CNC(=O)c1ccc(Nc2nc(OC3CCCC3)c3c(-c4ccc5nc(C)oc5c4)c[nH]c3n2)c(OC)c1
6.34: pIC50 [1]
6.40: pIC50 [2]
active: viability, T/C (second compound 3.16 µM, first compound 10 µM) 8.42% | viability, T/C (second compound 10 µM, first compound 10 µM) 7.86%
inactive: viability, T/C (second compound 0.0316 µM, first compound 0.0316 µM) 76.8% | viability, T/C (second compound 0.0316 µM, first compound 0.1 µM) 61% | viability, T/C (second compound 0.0316 µM, first compound 0.316 µM) 44.5% | viability, T/C (second compound 0.0316 µM, first compound 1 µM) 53.9% | viability, T/C (second compound 0.0316 µM, first compound 3.16 µM) 33.1% | viability, T/C (second compound 0.0316 µM, first compound 10 µM) 23.1% | viability, T/C (second compound 0.1 µM, first compound 0.0316 µM) 49.9% | viability, T/C (second compound 0.1 µM, first compound 0.1 µM) 64.9% | viability, T/C (second compound 0.1 µM, first compound 0.316 µM) 47.7% | viability, T/C (second compound 0.1 µM, first compound 1 µM) 43% | viability, T/C (second compound 0.1 µM, first compound 3.16 µM) 26.4% | viability, T/C (second compound 0.1 µM, first compound 10 µM) 19.2% | viability, T/C (second compound 0.316 µM, first compound 0.0316 µM) 52.7% | viability, T/C (second compound 0.316 µM, first compound 0.1 µM) 47% | viability, T/C (second compound 0.316 µM, first compound 0.316 µM) 34.1% | viability, T/C (second compound 0.316 µM, first compound 1 µM) 27.9% | viability, T/C (second compound 0.316 µM, first compound 3.16 µM) 24.6% | viability, T/C (second compound 0.316 µM, first compound 10 µM) 15.8% | viability, T/C (second compound 1 µM, first compound 0.0316 µM) 47.5% | viability, T/C (second compound 1 µM, first compound 0.1 µM) 30% | viability, T/C (second compound 1 µM, first compound 0.316 µM) 28.1% | viability, T/C (second compound 1 µM, first compound 1 µM) 24.3% | viability, T/C (second compound 1 µM, first compound 3.16 µM) 19.3% | viability, T/C (second compound 1 µM, first compound 10 µM) 8.72% | viability, T/C (second compound 3.16 µM, first compound 0.0316 µM) 48.3% | viability, T/C (second compound 3.16 µM, first compound 0.1 µM) 36.1% | viability, T/C (second compound 3.16 µM, first compound 0.316 µM) 27.2% | viability, T/C (second compound 3.16 µM, first compound 1 µM) 18.9% | viability, T/C (second compound 3.16 µM, first compound 3.16 µM) 10.7% | viability, T/C (second compound 10 µM, first compound 0.0316 µM) 33.4% | viability, T/C (second compound 10 µM, first compound 0.1 µM) 29.9% | viability, T/C (second compound 10 µM, first compound 0.316 µM) 18.1% | viability, T/C (second compound 10 µM, first compound 1 µM) 17.7% | viability, T/C (second compound 10 µM, first compound 3.16 µM) 13.9%
7.31: pIC50 [3]
> 7.50: pIC50 [4] | pIC50 [5] | pIC50 [6]

CC(=O)O[C@H]1C(=O)[C@@]2(C)[C@H]([C@H](OC(=O)c3ccccc3)[C@]3(O)C[C@H](OC(=O)[C@H](O)[C@@H](NC(=O)c4ccccc4)c4ccccc4)C(C)=C1C3(C)C)[C@]1(OC(C)=O)CO[C@@H]1C[C@@H]2O
> 7.50: pIC50 (curve of compound)
inactive: viability, T/C (compound 0.0316 µM) 19.9% and 16% | viability, T/C (compound 0.1 µM) 13.5% and 12.5% | viability, T/C (compound 0.316 µM) 14.8% and 14.5% | viability, T/C (compound 1 µM) 23.2% and 18.2% | viability, T/C (compound 3.16 µM) 26.6% and 27.1% | viability, T/C (compound 10 µM) 26.6% and 32.9%

C=CC(=O)Nc1cc(Nc2nccc(-c3cn(C)c4ccccc34)n2)c(OC)cc1N(C)CCN(C)C + CN1CCN(c2cc(C(=O)Nc3cc4cc(-c5cnn(C)c5)ccc4cn3)ccn2)CC1
> 9.02: pIC50 [3] | pIC50 [4] | pIC50 [5] | pIC50 [6]
< 6.52: pIC50 [1] | pIC50 [2]
inactive: viability, T/C [7] 102% | viability, T/C [8] 91.7% | viability, T/C [9] 112% | viability, T/C [10] 89.8% | viability, T/C [11] 94.8% | viability, T/C [12] 90% | viability, T/C [13] 99.7% | viability, T/C [14] 90.2% | viability, T/C [15] 97.7% | viability, T/C [16] 94.7% | viability, T/C [17] 77.6% | viability, T/C [18] 79.9% | viability, T/C [19] 19.2% | viability, T/C [20] 26.4% | viability, T/C [21] 23.4% | viability, T/C [22] 13.1% | viability, T/C [23] 24.2% | viability, T/C [24] 11.1%
active: viability, T/C [25] 0.2% | viability, T/C [26] 0.66% | viability, T/C [27] 0.19% | viability, T/C [28] 0.27% | viability, T/C [29] 0.26% | viability, T/C [30] 1.38% | viability, T/C [31] 0.16% | viability, T/C [32] 1.53% | viability, T/C [33] 0.47% | viability, T/C [34] 0.12% | viability, T/C [35] 1.26% | viability, T/C [36] 0.93% | viability, T/C [37] 1.34% | viability, T/C [38] 0.16% | viability, T/C [39] 0.96% | viability, T/C [40] 1.65% | viability, T/C [41] 2.39% | viability, T/C [42] 2.57%

CC(C)CC(NC(=O)C(Cc1ccccc1)NC(=O)c1cnccn1)B(O)O (stereo not drawn) + CN1CCN(c2cc(C(=O)Nc3cc4cc(-c5cnn(C)c5)ccc4cn3)ccn2)CC1
inactive: viability, T/C [7] 30.4% | viability, T/C [13] 28% | viability, T/C [19] 13%
active: viability, T/C [8] 2% | viability, T/C [9] 1.41% | viability, T/C [10] 0.26% | viability, T/C [11] 1.66% | viability, T/C [12] 1.32% | viability, T/C [14] 0.48% | viability, T/C [15] 1.04% | viability, T/C [16] 0.2% | viability, T/C [17] 0.26% | viability, T/C [18] 0.77% | viability, T/C [20] 0.37% | viability, T/C [21] 0.66% | viability, T/C [22] 0.14% | viability, T/C [23] 0.29% | viability, T/C [24] 1.48% | viability, T/C [25] 0.13% | viability, T/C [26] 0.37% | viability, T/C [27] 0.14% | viability, T/C [28] 0.09% | viability, T/C [29] 1.37% | viability, T/C [30] 0.12% | viability, T/C [31] 0.33% | viability, T/C [32] 1.51% | viability, T/C [33] 0.09% | viability, T/C [34] 0.08% | viability, T/C [35] 3.52% | viability, T/C [36] 1.36% | viability, T/C [37] 0.1% | viability, T/C [38] 1.45% | viability, T/C [39] 2.17% | viability, T/C [40] 0.1% | viability, T/C [41] 1.66% | viability, T/C [42] 0.84%
> 9.02: pIC50 [1] | pIC50 [2] | pIC50 [3] | pIC50 [4] | pIC50 [5] | pIC50 [6]
